US20240041042A1, “1-(PYRIDYL)-5-AZINYLPYRAZOLE DERIVATIVES, AND THEIR USE FOR CONTROL OF UNDESIRED PLANT GROWTH” (Bayer Aktiengesellschaft, priority 2020, published 2024)
Like-named read-outs stand apart in the source and are kept apart here.

Experiments:
Type in all cases: in vivo
[1] = test system: Pharbitis purpurea (PHBPU); experiment: Post-emergence herbicidal action against PHBPU; settings: dosage 320 g/ha
How it was run: (§1)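 Doses of 320 g/ha or lower, suffixes a, b and c marking different dosages, were applied post-emergence at the one-leaf stage in 600 l/ha water with 0.5% additive. Damage was assessed visually after about 3 weeks in the greenhouse.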

[2] = test system: Amaranthus retroflexus (AMARE); experiment: Post-emergence herbicidal action against AMARE; settings: 320 g/ha, visual rating about 3 weeks after treatment
How it was run: as §1

[3] = test system: Setaria viridis (SETVI); experiment: Post-emergence herbicidal action against SETVI; settings: dosage 320 g/ha
How it was run: as §1

[4] = test system: Triticum aestivum (TRZAS); settings: crop plant compatibility, 80 g/ha, effect vs untreated controls
How it was run: (§2)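 Visual rating (% effect vs. untreated plants; 100% = plant death) made about 3 weeks after treatment. Plants had been sprayed at one-leaf stage, 2–3 weeks post-sowing, with aqueous WP/EC preparations containing 0.5% additive, 600 l/ha water volume; a, b, c mark dose levels.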

[5] = test system: Zea mays (ZEAMX); settings: crop plant compatibility, effect vs untreated controls
How it was run: as §2

[6] = test system: Oryza sativa (ORYSA); settings: crop plant compatibility, effect in comparison to untreated controls
How it was run: as §2

[7] = test system: Lolium rigidum (LOLRI); experiment: Post-emergence herbicidal action against LOLRI; settings: dosage 320 g/ha
How it was run: as §1

[8] = test system: Glycine max (GLXMA); settings: pre-emergence, crop plant compatibility, in comparison to untreated controls
How it was run: (§3)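 Crop injury rated visually in percent against untreated plants roughly 3 weeks after treatment (0% no effect, 100% plants dead). Compounds, as WP or EC with 0.5% additive in 600 l/ha water, were applied to the covering soil right after sowing; greenhouse growth. Suffixes a, b, c denote different dosages.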

[9] = test system: Zea mays (ZEAMX); settings: pre-emergence, crop plant compatibility, in comparison to untreated controls
How it was run: as §3

[10] = test system: Oryza sativa (ORYSA); settings: pre-emergence, crop plant compatibility, in comparison to untreated controls
How it was run: as §3

[11] = test system: Brassica napus (BRSNW); settings: crop plant compatibility, in comparison to untreated controls
How it was run: as §3

[12] = test system: Echinochloa crus-galli (ECHCG); experiment: Post-emergence herbicidal action against ECHCG; settings: dosage 320 g/ha
How it was run: as §1

[13] = test system: Avena fatua (AVEFA); experiment: Post-emergence herbicidal action against AVEFA; settings: 320 g/ha, visual rating about 3 weeks after treatment
How it was run: as §1

[14] = test system: Polygonum convolvulus (POLCO); experiment: Pre-emergence herbicidal action against POLCO; settings: dosage 320 g/ha
How it was run: (§4)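 Application rates ran to 320 g/ha or lower, with several dosages tested on the same weeds. The compound, as wettable powder or emulsion concentrate, is sprayed pre-emergence onto soil over sown seeds; greenhouse growth follows, and effect is rated visually after roughly 3 weeks.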

[15] = test system: Avena fatua (AVEFA); experiment: Pre-emergence herbicidal action against AVEFA; settings: 320 g/ha, visual scoring after about 3 weeks vs untreated controls
How it was run: as §4

[16] = test system: Lolium rigidum (LOLRI); experiment: Pre-emergence herbicidal action against LOLRI; settings: dosage 320 g/ha
How it was run: as §4

[17] = test system: Viola tricolor (VIOTR); experiment: Pre-emergence herbicidal action against VIOTR; settings: 320 g/ha, Viola tricolor
How it was run: as §4

[18] = test system: Alopecurus myosuroides (ALOMY); experiment: Post-emergence herbicidal action against ALOMY; settings: 320 g/ha, visual rating about 3 weeks after treatment vs untreated controls (100% = plants have died, 0% = like control plants)
How it was run: as §1

[19] = test system: Alopecurus myosuroides (ALOMY); experiment: Pre-emergence herbicidal action against ALOMY; settings: 320 g/ha; scored visually after about 3 weeks; 100% = plants have died
How it was run: as §4

Structure (SMILES) | Post-emergence action against PHBPU in % [1] [%] | Post-emergence action against TRZAS in % [4] [%] | Post-emergence action against ZEAMX in % ([5]; 80 g/ha) [%] | Post-emergence action against ZEAMX in % ([5]; 320 g/ha) [%] | Post-emergence action against ORYSA in % ([6]; 80 g/ha) [%] | Post-emergence action against ORYSA in % ([6]; 320 g/ha) [%] | Post-emergence action against LOLRI in % [7] [%] | Pre-emergence action against GLXMA in % ([8]; 80 g/ha) [%] | Pre-emergence action against ZEAMX in % ([9]; 80 g/ha) [%] | Pre-emergence action against ZEAMX in % ([9]; 320 g/ha) [%] | Pre-emergence action against ORYSA in % ([10]; 80 g/ha) [%] | Pre-emergence action against ORYSA in % ([10]; 320 g/ha) [%] | Pre-emergence action against BRSNW in % ([11]; 80 g/ha) [%] | Pre-emergence action against BRSNW in % ([11]; 320 g/ha) [%] | Post-emergence action against ECHCG in % [12] [%] | also measured
CCOC(=O)COc1nn(-c2ncccc2OC)c(-c2ccc(F)nc2)c1Br [Example I-371] | 80 | 20 | 20 | 20 | 0 | 0 | 90 | 20 | 0 | 10 | 0 | 0 | 0 | 20 | – | Post-emergence action against AMARE in % [2]: 80%; Post-emergence action against SETVI in % [3]: 80%
COc1cccnc1-n1nc(OCC(=O)O)c(Br)c1-c1ccc(F)nc1 [Example I-363] | 80 | 0 | 0 | 0 | 0 | 0 | – | 0 | 0 | 0 | – | – | 0 | 20 | 80 | Pre-emergence action against GLXMA in % ([8]; 320 g/ha): 0%
COc1cccnc1-n1nc(OCC(=O)O)c(Cl)c1-c1ccc(F)nc1 [Example I-329] | 80 | 0 | 0 | 0 | 0 | 0 | – | 0 | 0 | 10 | 0 | 20 | 0 | – | – | –
CCOC(=O)C(C)Oc1nn(-c2ccccn2)c(-c2ccc(F)nc2)c1Br (racemic) [Example I-58] | 80 | – | 20 | – | 0 | – | 80 | 0 | 20 | – | 0 | – | 0 | – | 80 | Post-emergence action against AVEFA in % [13]: 90%; Pre-emergence action against POLCO in % [14]: 90%; Pre-emergence action against AVEFA in % [15]: 80%; Pre-emergence action against LOLRI in % [16]: 80%; Pre-emergence action against VIOTR in % [17]: 80%; Post-emergence action against ALOMY in % [18]: 90%; Pre-emergence action against ALOMY [19]: 90%
